From the supplement of paper PMC10307832

Key:
Experiment in all cases: relative viability (nuclei count vs DMSO), 5 days (fraction); higher = more cells survive
AZD1208 + OSI-027 = compound: N[C@@H]1CCCN(c2c(/C=C3\SC(=O)NC3=O)cccc2-c2ccccc2)C1 [AZD1208] + COc1cccc2cc(-c3nc([C@H]4CC[C@H](C(=O)O)CC4)n4ncnc(N)c34)[nH]c12 [OSI-027] (partner 0.5 µM)
How it was run: (§1)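 Relative viability was taken as the ratio of nuclei in treated wells to nuclei in vehicle wells. Lung cancer cell lines in 1536-well plates received compounds by pin tool one day after seeding, either one drug alone or a fixed anchor-drug dose plus five library-drug doses (not always all listed) in √10 steps. Nuclei were counted on 4× images after 5 days of treatment, and values are medians of duplicate plates.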

AZD1208 + AZD7762 = compound: N[C@@H]1CCCN(c2c(/C=C3\SC(=O)NC3=O)cccc2-c2ccccc2)C1 [AZD1208] + NC(=O)Nc1cc(-c2cccc(F)c2)sc1C(=O)N[C@H]1CCCNC1 [AZD7762] (partner 0.2 µM)
How it was run: as §1

XMD14-99 + Luminespib = compound: CN1CCN(CC1)C2=CC(=C(C=C2)NC3=NC(=C(S3)C(=O)C4=C(C=CC=C4Cl)Cl)N)OC [XMD14-99] + CCNC(=O)c1noc(-c2cc(C(C)C)c(O)cc2O)c1-c1ccc(CN2CCOCC2)cc1 [Luminespib] (partner 0.01 µM)
How it was run: as §1

XMD14-99 + Pictilisib = compound: CN1CCN(CC1)C2=CC(=C(C=C2)NC3=NC(=C(S3)C(=O)C4=C(C=CC=C4Cl)Cl)N)OC [XMD14-99] + CS(=O)(=O)N1CCN(Cc2cc3nc(-c4cccc5[nH]ncc45)nc(N4CCOCC4)c3s2)CC1 [Pictilisib] (partner 1 µM)
How it was run: as §1

NCI-H2126
relative viability (AZD1208 + OSI-027; first compound 0.08 µM): 0.74 | relative viability (AZD1208 + OSI-027; first compound 0.253 µM): 0.704 | relative viability (AZD1208 + OSI-027; first compound 0.8 µM): 0.68 | relative viability (AZD1208 + OSI-027; first compound 2.53 µM): 0.613 | relative viability (AZD1208 + OSI-027; first compound 8 µM): 0.674 | relative viability (AZD1208 + AZD7762; first compound 0.08 µM): 1.03 | relative viability (AZD1208 + AZD7762; first compound 0.253 µM): 1.08 | relative viability (AZD1208 + AZD7762; first compound 0.8 µM): 1.02 | relative viability (AZD1208 + AZD7762; first compound 2.53 µM): 0.996 | relative viability (AZD1208 + AZD7762; first compound 8 µM): 0.928 | relative viability (XMD14-99 + Luminespib; first compound 0.08 µM): 0.966 | relative viability (XMD14-99 + Luminespib; first compound 0.8 µM): 0.827 | relative viability (XMD14-99 + Luminespib; first compound 2.53 µM): 0.873 | relative viability (XMD14-99 + Luminespib; first compound 8 µM): 0.595 | relative viability (XMD14-99 + Pictilisib; first compound 0.08 µM): 0.5 | relative viability (XMD14-99 + Pictilisib; first compound 0.8 µM): 0.527 | relative viability (XMD14-99 + Pictilisib; first compound 2.53 µM): 0.508 | relative viability (XMD14-99 + Pictilisib; first compound 8 µM): 0.473

NCI-H2170
relative viability (AZD1208 + OSI-027; first compound 0.08 µM): 0.751 | relative viability (AZD1208 + OSI-027; first compound 0.253 µM): 0.653 | relative viability (AZD1208 + OSI-027; first compound 0.8 µM): 0.636 | relative viability (AZD1208 + OSI-027; first compound 2.53 µM): 0.625 | relative viability (AZD1208 + OSI-027; first compound 8 µM): 0.535 | relative viability (AZD1208 + AZD7762; first compound 0.08 µM): 0.911 | relative viability (AZD1208 + AZD7762; first compound 0.253 µM): 0.923 | relative viability (AZD1208 + AZD7762; first compound 0.8 µM): 0.821 | relative viability (AZD1208 + AZD7762; first compound 2.53 µM): 0.796 | relative viability (AZD1208 + AZD7762; first compound 8 µM): 0.424 | relative viability (XMD14-99 + Luminespib; first compound 0.08 µM): 0.652 | relative viability (XMD14-99 + Luminespib; first compound 0.8 µM): 0.59 | relative viability (XMD14-99 + Luminespib; first compound 2.53 µM): 0.755 | relative viability (XMD14-99 + Luminespib; first compound 8 µM): 0.372 | relative viability (XMD14-99 + Pictilisib; first compound 0.08 µM): 0.311 | relative viability (XMD14-99 + Pictilisib; first compound 0.8 µM): 0.355 | relative viability (XMD14-99 + Pictilisib; first compound 2.53 µM): 0.273 | relative viability (XMD14-99 + Pictilisib; first compound 8 µM): 0.28

NCI-H2347
relative viability (AZD1208 + OSI-027; first compound 0.08 µM): 0.321 | relative viability (AZD1208 + OSI-027; first compound 0.253 µM): 0.344 | relative viability (AZD1208 + OSI-027; first compound 0.8 µM): 0.329 | relative viability (AZD1208 + OSI-027; first compound 2.53 µM): 0.302 | relative viability (AZD1208 + OSI-027; first compound 8 µM): 0.35 | relative viability (AZD1208 + AZD7762; first compound 0.08 µM): 0.835 | relative viability (AZD1208 + AZD7762; first compound 0.253 µM): 0.747 | relative viability (AZD1208 + AZD7762; first compound 0.8 µM): 0.72 | relative viability (AZD1208 + AZD7762; first compound 2.53 µM): 0.764 | relative viability (AZD1208 + AZD7762; first compound 8 µM): 0.781 | relative viability (XMD14-99 + Luminespib; first compound 0.08 µM): 0.337 | relative viability (XMD14-99 + Luminespib; first compound 0.8 µM): 0.339 | relative viability (XMD14-99 + Luminespib; first compound 2.53 µM): 0.368 | relative viability (XMD14-99 + Luminespib; first compound 8 µM): 0.301 | relative viability (XMD14-99 + Pictilisib; first compound 0.08 µM): 0.519 | relative viability (XMD14-99 + Pictilisib; first compound 0.8 µM): 0.871 | relative viability (XMD14-99 + Pictilisib; first compound 2.53 µM): 0.477 | relative viability (XMD14-99 + Pictilisib; first compound 8 µM): 0.431

NCI-H2405
relative viability (AZD1208 + OSI-027; first compound 0.08 µM): 0.52 | relative viability (AZD1208 + OSI-027; first compound 0.253 µM): 0.575 | relative viability (AZD1208 + OSI-027; first compound 0.8 µM): 0.56 | relative viability (AZD1208 + OSI-027; first compound 2.53 µM): 0.607 | relative viability (AZD1208 + OSI-027; first compound 8 µM): 0.532 | relative viability (AZD1208 + AZD7762; first compound 0.08 µM): 0.676 | relative viability (AZD1208 + AZD7762; first compound 0.253 µM): 0.636 | relative viability (AZD1208 + AZD7762; first compound 0.8 µM): 0.699 | relative viability (AZD1208 + AZD7762; first compound 2.53 µM): 0.705 | relative viability (AZD1208 + AZD7762; first compound 8 µM): 0.629 | relative viability (XMD14-99 + Luminespib; first compound 0.08 µM): 0.659 | relative viability (XMD14-99 + Luminespib; first compound 0.8 µM): 0.767 | relative viability (XMD14-99 + Luminespib; first compound 2.53 µM): 0.861 | relative viability (XMD14-99 + Luminespib; first compound 8 µM): 0.475 | relative viability (XMD14-99 + Pictilisib; first compound 0.08 µM): 0.39 | relative viability (XMD14-99 + Pictilisib; first compound 0.8 µM): 0.414 | relative viability (XMD14-99 + Pictilisib; first compound 2.53 µM): 0.457 | relative viability (XMD14-99 + Pictilisib; first compound 8 µM): 0.248

NCI-H3122
relative viability (AZD1208 + OSI-027; first compound 0.08 µM): 0.842 | relative viability (AZD1208 + OSI-027; first compound 0.253 µM): 0.856 | relative viability (AZD1208 + OSI-027; first compound 0.8 µM): 0.768 | relative viability (AZD1208 + OSI-027; first compound 2.53 µM): 0.862 | relative viability (AZD1208 + OSI-027; first compound 8 µM): 0.606 | relative viability (AZD1208 + AZD7762; first compound 0.08 µM): 1.07 | relative viability (AZD1208 + AZD7762; first compound 0.253 µM): 1.04 | relative viability (AZD1208 + AZD7762; first compound 0.8 µM): 0.952 | relative viability (AZD1208 + AZD7762; first compound 2.53 µM): 1.08 | relative viability (AZD1208 + AZD7762; first compound 8 µM): 0.894 | relative viability (XMD14-99 + Luminespib; first compound 0.08 µM): 0.0829 | relative viability (XMD14-99 + Luminespib; first compound 0.8 µM): 0.0788 | relative viability (XMD14-99 + Luminespib; first compound 2.53 µM): 0.132 | relative viability (XMD14-99 + Luminespib; first compound 8 µM): 0.0985 | relative viability (XMD14-99 + Pictilisib; first compound 0.08 µM): 0.563 | relative viability (XMD14-99 + Pictilisib; first compound 0.8 µM): 0.474 | relative viability (XMD14-99 + Pictilisib; first compound 2.53 µM): 0.446 | relative viability (XMD14-99 + Pictilisib; first compound 8 µM): 0.326

PC-3 [JPC-3]
relative viability (AZD1208 + OSI-027; first compound 0.08 µM): 0.8 | relative viability (AZD1208 + OSI-027; first compound 0.253 µM): 0.698 | relative viability (AZD1208 + OSI-027; first compound 0.8 µM): 0.762 | relative viability (AZD1208 + OSI-027; first compound 2.53 µM): 0.702 | relative viability (AZD1208 + OSI-027; first compound 8 µM): 0.628 | relative viability (AZD1208 + AZD7762; first compound 0.08 µM): 1.03 | relative viability (AZD1208 + AZD7762; first compound 0.253 µM): 0.89 | relative viability (AZD1208 + AZD7762; first compound 0.8 µM): 0.692 | relative viability (AZD1208 + AZD7762; first compound 2.53 µM): 0.793 | relative viability (AZD1208 + AZD7762; first compound 8 µM): 0.823 | relative viability (XMD14-99 + Luminespib; first compound 0.08 µM): 0.682 | relative viability (XMD14-99 + Luminespib; first compound 0.8 µM): 0.66 | relative viability (XMD14-99 + Luminespib; first compound 2.53 µM): 0.564 | relative viability (XMD14-99 + Luminespib; first compound 8 µM): 0.588 | relative viability (XMD14-99 + Pictilisib; first compound 0.08 µM): 0.793 | relative viability (XMD14-99 + Pictilisib; first compound 0.8 µM): 0.73 | relative viability (XMD14-99 + Pictilisib; first compound 2.53 µM): 0.717 | relative viability (XMD14-99 + Pictilisib; first compound 8 µM): 0.586

PC-14
relative viability (AZD1208 + OSI-027; first compound 0.08 µM): 0.838 | relative viability (AZD1208 + OSI-027; first compound 0.253 µM): 0.881 | relative viability (AZD1208 + OSI-027; first compound 0.8 µM): 0.722 | relative viability (AZD1208 + OSI-027; first compound 2.53 µM): 0.586 | relative viability (AZD1208 + OSI-027; first compound 8 µM): 0.621 | relative viability (AZD1208 + AZD7762; first compound 0.08 µM): 0.404 | relative viability (AZD1208 + AZD7762; first compound 0.253 µM): 0.429 | relative viability (AZD1208 + AZD7762; first compound 0.8 µM): 0.366 | relative viability (AZD1208 + AZD7762; first compound 2.53 µM): 0.324 | relative viability (AZD1208 + AZD7762; first compound 8 µM): 0.414 | relative viability (XMD14-99 + Luminespib; first compound 0.08 µM): 0.156 | relative viability (XMD14-99 + Luminespib; first compound 0.8 µM): 0.151 | relative viability (XMD14-99 + Luminespib; first compound 2.53 µM): 0.156 | relative viability (XMD14-99 + Luminespib; first compound 8 µM): 0.171 | relative viability (XMD14-99 + Pictilisib; first compound 0.08 µM): 0.621 | relative viability (XMD14-99 + Pictilisib; first compound 0.8 µM): 0.611 | relative viability (XMD14-99 + Pictilisib; first compound 2.53 µM): 0.573 | relative viability (XMD14-99 + Pictilisib; first compound 8 µM): 0.312

RERF-LC-KJ
relative viability (AZD1208 + OSI-027; first compound 0.08 µM): 0.511 | relative viability (AZD1208 + OSI-027; first compound 0.253 µM): 0.558 | relative viability (AZD1208 + OSI-027; first compound 0.8 µM): 0.512 | relative viability (AZD1208 + OSI-027; first compound 2.53 µM): 0.518 | relative viability (AZD1208 + OSI-027; first compound 8 µM): 0.41 | relative viability (AZD1208 + AZD7762; first compound 0.08 µM): 0.991 | relative viability (AZD1208 + AZD7762; first compound 0.253 µM): 1.08 | relative viability (AZD1208 + AZD7762; first compound 0.8 µM): 0.631 | relative viability (AZD1208 + AZD7762; first compound 2.53 µM): 0.759 | relative viability (AZD1208 + AZD7762; first compound 8 µM): 0.611 | relative viability (XMD14-99 + Luminespib; first compound 0.08 µM): 1.26 | relative viability (XMD14-99 + Luminespib; first compound 0.8 µM): 1.13 | relative viability (XMD14-99 + Luminespib; first compound 2.53 µM): 1.05 | relative viability (XMD14-99 + Luminespib; first compound 8 µM): 0.822 | relative viability (XMD14-99 + Pictilisib; first compound 0.08 µM): 0.668 | relative viability (XMD14-99 + Pictilisib; first compound 0.8 µM): 0.521 | relative viability (XMD14-99 + Pictilisib; first compound 2.53 µM): 0.487 | relative viability (XMD14-99 + Pictilisib; first compound 8 µM): 0.477
